Measurements published in ChEMBL document CHEMBL1201862, “PubChem BioAssay data set” (2004).
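Step 1: Grow cells in 96-well plates. Step 2: Expose to compound for 48 hours at 5 concentrations. Step 3: Interpolate endpoints linearly; if unreached, use highest concentration. GI50 marks 50% less growth.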 Activity calls are given as the source filed them. Cut-off read from the data, not from the text of the source: active = GI50 up to about 1.1 µM and inactive = higher.

Experiments:
Assay in all cases: DTP human tumour cell line panel, 48 h
LOX IMVI = system: LOX IMVI
EKVX = system: EKVX
KM12 = system: KM12
MOLT-4 = system: MOLT-4
SK-MEL-28 = system: SK-MEL-28
UACC-62 = system: UACC-62
BT-549 = system: BT-549
T47D = system: T47D
HT-29 = system: HT-29
SNB-75 = system: SNB-75
SF-268 = system: SF-268
M14 = system: M14
RXF 393 = system: RXF 393
RPMI-8226 = system: RPMI-8226
MDA-N = system: MDA-N
A549 = system: A549
PC-3 = system: PC-3
SK-MEL-2 = system: SK-MEL-2
UACC-257 = system: UACC-257
OVCAR-5 = system: OVCAR-5

SMILES | GI50 (LOX IMVI) | GI50 (EKVX) | GI50 (KM12) | GI50 (MOLT-4) | GI50 (SK-MEL-28) | GI50 (UACC-62) | GI50 (BT-549) | GI50 (T47D) | GI50 (HT-29) | GI50 (SNB-75) | GI50 (SF-268) | GI50 (M14) | GI50 (RXF 393) | GI50 (RPMI-8226) | GI50 (MDA-N) | GI50 (A549) | GI50 (PC-3) | GI50 (SK-MEL-2) | GI50 (UACC-257) | GI50 (OVCAR-5)
CN(C)c1ncnc2c1ncn2C1C=CC(COS(N)(=O)=O)C1 (centres undefined) | 96.2 µM (inactive) | > 100 µM (inactive) | > 100 µM (inactive) | > 100 µM (inactive) | > 100 µM (inactive) | > 100 µM (inactive) | > 100 µM (inactive) | > 100 µM (inactive) | > 100 µM (inactive) | > 100 µM (inactive) | > 100 µM (inactive) | > 100 µM (inactive) | 66.1 µM (inactive) | > 100 µM (inactive) | > 100 µM (inactive) | > 100 µM (inactive) | 60.7 µM (inactive) | > 100 µM (inactive) | > 100 µM (inactive) | –
O=C1CSC(c2cccc(Oc3ccccc3)c2)N1c1cccc(Cl)c1Cl (centres undefined) | 13.6 µM (inactive) | 25.2 µM (inactive) | 26.7 µM (inactive) | 22.5 µM (inactive) | 50 µM (inactive) | 17.8 µM (inactive) | 19.9 µM (inactive) | 35.8 µM (inactive) | 22.4 µM (inactive) | 41 µM (inactive) | 23.6 µM (inactive) | 40.4 µM (inactive) | 57.1 µM (inactive) | – | 21 µM (inactive) | > 100 µM (inactive) | 25.7 µM (inactive) | 18.1 µM (inactive) | 24.4 µM (inactive) | 33.5 µM (inactive)
CCC1c2[nH]c3ccccc3c2C[C@H]2C(=O)NC(Cc3c[nH]c4ccccc34)C(=O)N12 (some centres undefined) | 22.1 µM (inactive) | 32 µM (inactive) | 18.9 µM (inactive) | 15.9 µM (inactive) | 33.9 µM (inactive) | 15.5 µM (inactive) | 22.6 µM (inactive) | 26.4 µM (inactive) | 24.2 µM (inactive) | – | 29.7 µM (inactive) | 21.5 µM (inactive) | 17.4 µM (inactive) | 19.4 µM (inactive) | 24.2 µM (inactive) | 28 µM (inactive) | 18.7 µM (inactive) | 20 µM (inactive) | 19.4 µM (inactive) | 25.8 µM (inactive)
COC(=O)Nc1nc2cc(NS(=O)(=O)c3cccs3)ccc2[nH]1 | 36.3 µM (inactive) | 22.4 µM (inactive) | 13.7 µM (inactive) | 13.6 µM (inactive) | 19.3 µM (inactive) | 17 µM (inactive) | 71.8 µM (inactive) | 28.7 µM (inactive) | 23 µM (inactive) | 20.7 µM (inactive) | 38.3 µM (inactive) | 21.5 µM (inactive) | 19.3 µM (inactive) | 35.1 µM (inactive) | 3.56 µM (inactive) | 43.9 µM (inactive) | 33.9 µM (inactive) | 76.6 µM (inactive) | – | 37.2 µM (inactive)
CC(C(O)c1ccccc1)N(C)/N=N/c1nc2c([nH]1)c(=O)n(C)c(=O)n2C (centres undefined) | – | 88.1 µM (inactive) | 46.2 µM (inactive) | 38.3 µM (inactive) | > 100 µM (inactive) | > 100 µM (inactive) | > 100 µM (inactive) | 85.5 µM (inactive) | 39.6 µM (inactive) | > 100 µM (inactive) | > 100 µM (inactive) | > 100 µM (inactive) | 42.9 µM (inactive) | 48.9 µM (inactive) | 44.8 µM (inactive) | 50.8 µM (inactive) | 95.3 µM (inactive) | > 100 µM (inactive) | > 100 µM (inactive) | > 100 µM (inactive)
CC1OC1P(=O)(O)O (centres undefined) | > 100 µM (inactive) | > 100 µM (inactive) | > 100 µM (inactive) | > 100 µM (inactive) | > 100 µM (inactive) | > 100 µM (inactive) | > 100 µM (inactive) | > 100 µM (inactive) | > 100 µM (inactive) | > 100 µM (inactive) | > 100 µM (inactive) | – | > 100 µM (inactive) | 28 µM (inactive) | > 100 µM (inactive) | > 100 µM (inactive) | > 100 µM (inactive) | > 100 µM (inactive) | > 100 µM (inactive) | 26.3 µM (inactive)
O=C1c2ccccc2C(=O)N1NC1=NCCN1 | > 100 µM (inactive) | > 100 µM (inactive) | > 100 µM (inactive) | > 100 µM (inactive) | > 100 µM (inactive) | > 100 µM (inactive) | > 100 µM (inactive) | > 100 µM (inactive) | > 100 µM (inactive) | – | > 100 µM (inactive) | > 100 µM (inactive) | > 100 µM (inactive) | > 100 µM (inactive) | > 100 µM (inactive) | > 100 µM (inactive) | > 100 µM (inactive) | > 100 µM (inactive) | > 100 µM (inactive) | > 100 µM (inactive)
Cc1ccc(C2=CC(=O)OC(C[P+](c3ccccc3)(c3ccccc3)c3ccccc3)(c3ccccc3)O2)cc1 (centres undefined) | – | 15.3 µM (inactive) | 17.7 µM (inactive) | 21.3 µM (inactive) | 19 µM (inactive) | 14.8 µM (inactive) | 26.7 µM (inactive) | 20.6 µM (inactive) | 14.7 µM (inactive) | 21.3 µM (inactive) | 18.5 µM (inactive) | 17 µM (inactive) | 16.7 µM (inactive) | 17.5 µM (inactive) | 14.7 µM (inactive) | 15.8 µM (inactive) | 23.1 µM (inactive) | 15.2 µM (inactive) | 16.9 µM (inactive) | 23.2 µM (inactive)
C/C1=C/C(C)CC(C)OC(=O)C(C)NC(=O)C(Cc2ccc(O)c(I)c2)N(C)C(=O)C(C)NC(=O)C(C)C1 (centres undefined) | < 0.01 µM (active) | 0.0262 µM (active) | < 0.01 µM (active) | < 0.0187 µM (active) | 0.0314 µM (active) | < 0.0256 µM (active) | < 0.01 µM (active) | 0.0653 µM (active) | < 0.01 µM (active) | < 0.01 µM (active) | < 0.0166 µM (active) | < 0.015 µM (active) | < 0.01 µM (active) | < 0.01 µM (active) | < 0.01 µM (active) | < 0.01 µM (active) | < 0.01 µM (active) | – | < 0.01 µM (active) | 7.23 µM (inactive)
CC1=[N+](C)CCCN1C | > 100 µM (inactive) | > 100 µM (inactive) | > 100 µM (inactive) | > 100 µM (inactive) | > 100 µM (inactive) | – | > 100 µM (inactive) | > 100 µM (inactive) | > 100 µM (inactive) | > 100 µM (inactive) | > 100 µM (inactive) | > 100 µM (inactive) | > 100 µM (inactive) | > 100 µM (inactive) | > 100 µM (inactive) | > 100 µM (inactive) | > 100 µM (inactive) | > 100 µM (inactive) | > 100 µM (inactive) | > 100 µM (inactive)
C=CCCCC1CCCNC1=O (centres undefined) | – | > 100 µM (inactive) | > 100 µM (inactive) | > 100 µM (inactive) | > 100 µM (inactive) | > 100 µM (inactive) | > 100 µM (inactive) | > 100 µM (inactive) | > 100 µM (inactive) | > 100 µM (inactive) | > 100 µM (inactive) | > 100 µM (inactive) | > 100 µM (inactive) | > 100 µM (inactive) | 58.5 µM (inactive) | > 100 µM (inactive) | > 100 µM (inactive) | > 100 µM (inactive) | > 100 µM (inactive) | > 100 µM (inactive)
